{"source": "patent US20140342065A1", "about": "(priority 2012, published 2014)", "key": {"[1]": {"test_system": "fruits, vegetables, meat, chicken and salmon; yeast and/or bacteria", "test": "Food preservation with 500 mg NaHS in closed container at room temperature (FIG. 10)", "description": "Representative samples of foods shown include fruits, vegetables, meat, chicken and salmon. […] Foods and fruits were stored in closed containers. The containers were made of aluminum with a plastic lid that snugly fitted onto the container rim. […] Control group (Control) of foods and fruits were stored within the containers. The experimental group (Exp) of foods and fruits were placed in the same type of containers and 500 mg of NaHS was placed in a glass cup which was placed in one corner of the container of the Exp group. The containers were not sealed. Using a H2S gas detector capable of detecting 1 to 500 ppm of H2S, no H2S was detected outside the containers. The amount of gas within the Exp containers varied from 5-40 ppm during the course of exposure. […] Experiments were carried out at room temperature for the durations shown. […] There is small change in color, consistency, and of the same food group and there is no evidence of growth of yeast in the NaHS treated group. Strawberry 80. […] The fruit also lost its consistency and is discolored. […] Raspberry 82. Growth of yeast is seen by day 4 and is pronounced on day 6 (arrow 83) in the control group. The fruit also lost its consistency and is discolored. […] Blackberry 84. Growth of yeast is seen by day 4 which is pronounced by day 6 (arrow 85) in the control group. The fruit also lost its consistency and is discolored. […] Banana 86. Growth of yeast is seen by day 8 (arrow 87) in the control group. The fruit also lost its consistency and is discolored. […] Sprout 88. Growth of yeast and bacteria is seen by day 4 (arrow 89) in the control group. Sprout also lost its consistency and is discolored. […] Leek 90. The vegetable is discolored in the control group by day 3. […] Avocado 91. Avocado was either homogenized (top two rows) or cut into small 1×1 cm pieces (bottom two rows) and stored in the containers. […] Mushroom 92. Mushroom is discolored in the control group. […] Cantaloupe 93. Growth of yeast is seen by day 3 and is severe on day 4 (arrows 94) in the control group. The fruit also lost its consistency and is discolored. […] Red meat 95 (top), Chicken 96 (middle) and Salmon 97 (Bottom). The control container developed a foul smell on day 3 which was pronounced on day 4. Larvae developed on day 3 in the control group and flies were found on day 4 in the control group. […] Agar plate cultures, 98. Samples from each fruit were diluted in phosphate buffered saline, pH 7.4. From each sample, 20 microliters was streaked on agar plates and plates were maintained either at room temperature or at 37° C. Samples from control group yielded bacteria or yeast only from control group. To directly test growth of these bacteria and yeast in presence of NaHS, samples of bacteria and yeast were streaked on agar plates and then stored without or with NaHS. 50 mg of NaHS was placed in an aluminum chamber and these were inserted on both sides of the Exp Petri dishes. Petri dishes were placed at room temperature or at 37° C. Colonies of bacteria and yeast were evident in the control group on day 1 and coalesced by day 3 as shown in the representative cultures 98. […] No growth was found for up to 2 months following initiation of cultures."}, "bacteria and yeast": {"test_system": "bacteria and yeast", "test": "Agar plate cultures stored with 50 mg NaHS (FIG. 10, 98)", "assay_type": "cell-based", "description": "Representative samples of foods shown include fruits, vegetables, meat, chicken and salmon. […] Foods and fruits were stored in closed containers. The containers were made of aluminum with a plastic lid that snugly fitted onto the container rim. […] Control group (Control) of foods and fruits were stored within the containers. The experimental group (Exp) of foods and fruits were placed in the same type of containers and 500 mg of NaHS was placed in a glass cup which was placed in one corner of the container of the Exp group. The containers were not sealed. Using a H2S gas detector capable of detecting 1 to 500 ppm of H2S, no H2S was detected outside the containers. The amount of gas within the Exp containers varied from 5-40 ppm during the course of exposure. […] Experiments were carried out at room temperature for the durations shown. […] There is small change in color, consistency, and of the same food group and there is no evidence of growth of yeast in the NaHS treated group. Strawberry 80. […] The fruit also lost its consistency and is discolored. […] Raspberry 82. Growth of yeast is seen by day 4 and is pronounced on day 6 (arrow 83) in the control group. The fruit also lost its consistency and is discolored. […] Blackberry 84. Growth of yeast is seen by day 4 which is pronounced by day 6 (arrow 85) in the control group. The fruit also lost its consistency and is discolored. […] Banana 86. […]"}, "freshly cut broccoli": {"test_system": "freshly cut broccoli", "test": "NaHS solution fumigation of freshly cut broccoli", "description": "(§1) Aqueous NaHS solutions (0.25-3.5 mmol/L) could release H2S gas (10^−12˜10^−10 mol/L). H2S rapidly, reached to the highest levels within several minutes and maintained a constant concentration. […] The NaHS solution was renewed every 48 or 72 hours. The NaHS solution was placed in a sealed container separated by a partition board with pores on it. The fresh cut vegetables including Broccoli, Lettuce, Lotus Root, Yam, Pumpkin, Sweet Potato, Potato, etc, and the fresh cut fruits Apple, Pear, Kiwi Fruit, Tomato, Hami Melon, and Peach were placed above the board, while the NaHS solution was placed under the board. Therefore, the fresh cut vegetables and fruits were fumigated with H2S gas released from NaHS in the solution.\nThe controls of fresh cut broccoli that were treated with water (0.0 mmol/L NaHS) solution lost their edibility on day 3, while the shelf life of freshly cut broccoli treated with 0.25 mmol/L-1.75 mmol/L NaHS solution was prolonged by 2-3 days. […] The control of freshly cut broccoli treated with 0.0 mmol/L NaHS solution underwent rot process (due to physiological senescence and microbe infection) at 4 days, and the moldy rate reached 100%. In contrast, the treatment with 1.5 mmol/L H2S donor, NaHS, inhibited the infection by micro-organisms, and no infection appeared until day 9."}, "[2]": {"test_system": "freshly cut yams, sweet potatoes and potatoes", "test": "NaHS solution fumigation of freshly cut yams, sweet potatoes and potatoes", "description": "as §1\nThe control freshly cut yams, sweet potatoes and potatoes that were treated with water (0.0 mmol/L NaHS) underwent browning at 10˜12 hours, while the browning time of freshly cut yams, sweet potatoes and potatoes treated with 0.25-1.75 mmol/L NaHS solution was postponed by about 15-20 hours."}, "[3]": {"test_system": "freshly cut chips of lettuce and lotus roots", "test": "NaHS solution fumigation of freshly cut chips of lettuce and lotus roots", "description": "as §1\nThe control freshly cut chips of lettuce and lotus roots that were treated with water (0.0 mmol/L NaHS) lost their water and edibility after 15-24 hours, while the freshness of freshly cut chips of lettuce and lotus roots treated with 0.1 mmol/L-1.0 mmol/L NaHS solution was prolonged by 12-18 hours."}, "freshly cut tomatoes": {"test_system": "freshly cut tomatoes", "test": "NaHS solution fumigation of freshly cut tomatoes at breaker stage", "description": "as §1\nThe control freshly cut tomatoes that were treated with water (0.0 mmol/L NaHS) gradually turned red, and reached 100% maturation on day 5, while the maturation time of freshly cut tomatoes treated with 0.5 mmol/L-3.5 mmol/L NaHS solution was prolonged by 4-5 days."}}}
{"smiles": "S", "note": "[NaHS, sodium hydrosulfide]", "values": [{"measurement": "food spoilage and growth of mold and/or bacteria", "setting": "[1]; 500 mg NaHS, H2S 5-40 ppm in container, room temperature", "result": "prevents food spoilage and growth of mold and/or bacteria"}, {"measurement": "discoloration", "setting": "[1]; Avocado homogenized or cut pieces, day 3", "result": "maintained nearly the same color as that on day 1"}, {"measurement": "yeast growth, loss of consistency, discoloration", "setting": "[1]; Banana, day 8", "result": "These changes are not seen in the Exp group"}, {"measurement": "yeast growth, loss of consistency, discoloration", "setting": "[1]; Blackberry, day 6", "result": "These changes are not seen in the Exp group"}, {"measurement": "yeast growth, loss of consistency, discoloration", "setting": "[1]; Cantaloupe, day 4", "result": "These changes are not seen in the Exp group"}, {"measurement": "discoloration", "setting": "[1]; Leek, day 3", "result": "These changes are not seen in the Exp group"}, {"measurement": "discoloration", "setting": "[1]; Mushroom", "result": "These changes are less severe in the Exp group"}, {"measurement": "yeast growth, loss of consistency, discoloration", "setting": "[1]; Raspberry, day 6", "result": "These changes are not seen in the Exp group"}, {"measurement": "discoloration, foul smell, larvae and flies", "setting": "[1]; Red meat, Chicken and Salmon, day 4", "result": "Meat discolored in the Exp group on day 4 but there was no evidence of foul smell or flies"}, {"measurement": "growth of yeast and bacteria, loss of consistency, discoloration", "setting": "[1]; Sprout, day 4", "result": "These changes are not seen in the Exp group"}, {"measurement": "yeast growth, loss of consistency, discoloration", "setting": "[1]; Strawberry, day 4", "result": "These changes are not seen in the Exp group"}, {"measurement": "time without growth following initiation of cultures", "setting": "bacteria and yeast", "result": "up to 2 months"}, {"measurement": "colonies of bacteria and yeast on agar plates", "setting": "bacteria and yeast; room temperature or 37° C., day 1-3", "result": "no growth was evident"}, {"measurement": "shelf life prolonged by", "setting": "freshly cut broccoli; 0.25 mmol/L-1.75 mmol/L NaHS, control lost edibility on day 3", "result": "2 to 3", "unit": "days"}, {"measurement": "shelf life prolonged by", "setting": "freshly cut broccoli; 1.5 mmol/L NaHS (most optimal)", "result": 3, "unit": "days"}, {"measurement": "day until which no infection by micro-organisms appeared", "setting": "freshly cut broccoli; 1.5 mmol/L NaHS, control moldy rate 100% at 4 days", "result": 9, "unit": "days"}, {"measurement": "browning time postponed by", "setting": "[2]; 0.25-1.75 mmol/L NaHS, control browning at 10˜12 hours", "result": "15 to 20", "unit": "h"}, {"measurement": "browning time postponed by", "setting": "[2]; 1.0-1.5 mmol/L NaHS (most optimal)", "result": "16 to 20", "unit": "h"}, {"measurement": "freshness prolonged by", "setting": "[3]; 0.1 mmol/L-1.0 mmol/L NaHS, control lost water and edibility after 15-24 hours", "result": "12 to 18", "unit": "h"}, {"measurement": "freshness prolonged by", "setting": "[3]; 0.8 mmol/L-1.0 mmol/L NaHS (best)", "result": 18, "unit": "h"}, {"measurement": "maturation time prolonged by", "setting": "freshly cut tomatoes; 0.5 mmol/L-3.5 mmol/L NaHS, control 100% maturation on day 5", "result": "4 to 5", "unit": "days"}, {"measurement": "senescence time prolonged by", "setting": "freshly cut tomatoes; 1.5 mmol/L-2.0 mmol/L NaHS (best)", "result": 5, "unit": "days"}]}
